Reference: patent US9745334B2, “Cytotoxic-drug delivering molecules targeting HIV (CDM-Hs), cytotoxic activity against the human immunodeficiency virus and methods of use” (YALE UNIVERSITY, priority 2012, dated 2017)

What was measured:
CHO-env (gp120+) cells = test: Cell cytotoxicity assay (CellTiter Glo), CHO-env; assay type: cell-based; settings: 14 h; at 310 nM and 1.85 μM
Description: (§1) Wild-type HIV-1 env expressing CHO-env cells and CHO-pSv (env negative isogenic control) were a gift from Dr. Edward Berger (NIH), however, they were developed by Nicholas and coworkers.^55 CHO-pSv cells were grown in DMEM base media described below while CHO-env cells were grown in selection medium, which consists of base medium containing 0.25 μM methotrexate (MTX, Aldrich). *Note: Decrease in envelope expression in CHO-env cells was observed upon several passages and it is recommended to maintain low passage stocks of cells in liquid nitrogen.
(§2) Cell Cytotoxicity Assay (CellTiter Glo)
(§3) ***Note: all incubations and dilutions in CHO-culture media (+MTX for CHO-env)
(§4) ***All incubations performed in 96-well plates (clear bottom, black sides; Costar#3603) in triplicate at 37° C., 5% CO2 in moist environment.
(§5) Confluent (˜80%) T-75 flasks of CHO-env and/or CHO-pSv were washed once with DPBS (3 mL), detached, counted and then centrifuged. […]
(§6) Serial dilutions (1/6) of molecules made in empty 96-well plates using multichannel pipette, and then transferred to plates containing seeded cells (50 μL). […] Luminescence monitored on Biotek Synergy 2 microplate reader.
(§7) % cytotoxicity above background calculated by the following formulas: % CDC=[100−((sample−max kill)/(no molecule−max kill))*100] […]

CHO-pSV (gp120−) cells = test: Cell cytotoxicity assay (CellTiter Glo), CHO-pSV; assay type: cell-based; settings: 14 h incubation; concentrations as high as 67 μM
Description: as §1, §2, §3, §4, §5, §6, §7

With `COc1cccc2c1C(=O)c1c(O)c3c(c(O)c1C2=O)C[C@@](O)(C(=O)CO)C[C@@H]3O[C@H]1C[C@H](N)[C@H](O)[C@H](C)O1` [doxorubicin] the “toxicity at low concentrations” value (CHO-env (gp120+) cells) was “no toxicity was observed” and the non-specific cytotoxicity (CHO-pSV (gp120−) cells) was “non-specifically toxic”.
